According to US20240287194A1, “Targeting Extracellular Matrix Proteins to Regulate NK Cell Function in Peripheral Tissues” (The General Hospital Corporation, priority 2021, published 2024):

B1: elastin: Elastin (Mouse lung, Sigma), dermal ECM protein (protein, UniProt P54320 28-860, looked up)
Elastin: GGVPGAVPGGLPGGVPGGVYYPGAGIGGLGGGGGALGPGGKPPKPGAGLLGTFGAGPGGLGGAGPGAGLGAFPAGTFPGAGALVPGGAAGAAAAYKAAAKAGAGLGGVGGVPGGVGVGGVPGGVGVGGVPGGVGVGGVPGGVGGIGGIGGLGVSTGAVVPQVGAGIGAGGKPGKVPGVGLPGVYPGGVLPGTGARFPGVGVLPGVPTGTGVKAKAPGGGGAFAGIPGVGPFGGQQPGVPLGYPIKAPKLPGGYGLPYTNGKLPYGVAGAGGKAGYPTGTGVGSQAAAAAAKAAKYGAGGAGVLPGVGGGGIPGGAGAIPGIGGIAGAGTPAAAAAAKAAAKAAKYGAAGGLVPGGPGVRLPGAGIPGVGGIPGVGGIPGVGGPGIGGPGIVGGPGAVSPAAAAKAAAKAAKYGARGGVGIPTYGVGAGGFPGYGVGAGAGLGGASPAAAAAAAKAAKYGAGGAGALGGLVPGAVPGALPGAVPAVPGAGGVPGAGTPAAAAAAAAAKAAAKAGLGPGVGGVPGGVGVGGIPGGVGVGGVPGGVGPGGVTGIGAGPGGLGGAGSPAAAKSAAKAAAKAQYRAAAGLGAGVPGFGAGAGVPGFGAGAGVPGFGAGAGVPGFGAGAGVPGFGAGAVPGSLAASKAAKYGAAGGLGGPGGLGGPGGLGGPGGLGGAGVPGRVAGAAPPAAAAAAAKAAAKAAQYGLGGAGGLGAGGLGAGGLGAGGLGAGGLGAGGLGAGGLGAGGLGAGGGVSPAAAAKAAKYGAAGLGGVLGARPFPGGGVAARPGFGLSPIYPGGGAGGLGVGGKPPKPYGGALGALGYQGGGCFGKSCGRKRK

Columns and labels:
[1] = tested on: B2m^−/− B16-F10 melanoma cells; assay: Subcutaneous (S.C.) B2m−/− B16 melanoma model; format: in vivo, mice; settings: for proportions of tumor infiltrating Tregs, macrophages and MDSCs: B2m−/− B16 melanoma at the endpoint; for NK cell infiltration of the tumor parenchyma: B2m−/− B16 melanoma, day 3 post-S.C. injection; for T cell recruitment into the B2m−/− B16 tumors: CD3+ T cells, day 3 post S.C. injection; for IFNγ expression of tumor NK cells / PD-1 expression of tumor NK cells / granzyme B expression of tumor NK cells: NK cells from B2m−/− B16 melanoma, day 19-21 post-S.C. injection; for survival / B2m−/− melanoma growth in the skin: S.C. B2m−/− B16 in WT mice, losartan 60 mg/kg or DHB 40 mg/kg I.P. every day; for B2m−/− melanoma growth in the skin: control IgG vs anti-NK1.1
Procedure: All tumor experiments were performed in eight to twelve-week-old C57BL/6 female WT or Ncr1^iCre ROSA^mT-mG mice. For the S.C. tumor model, 2.5×10^5 B16-F10 WT or B2m^−/− cells were subcutaneously injected into the shaved flanks of mice. Tumor growth was measured every other day using a digital caliper starting from day seven. Tumor volume was calculated as follows: […]
To inhibit collagen deposition in and around the tumor, mice were administered with 60 mg/kg of Losartan Potassium (Fisher Scientific, catalog no. L02325G) or 40 mg/kg of 3,4-dihydroxybenzoic acid (DHB) (Sigma-Aldrich, catalog no. 37580) in 100 μL of sterile 1×PBS while the control mice were administered with the equivalent volume of sterile 1×PBS. These drugs were injected I.P. every day for the duration of the study starting the day of tumor inoculation.
For the collagenase/hyaluronidase experiment, 2.5×10^5 B16-F10 B2m^−/− cells were resuspended in 1×collagenase and hyaluronidase mix (Stemcell, catalog no. 07912) and were subcutaneously injected into the shaved flanks of mice. To deplete collagen within the tumor, mice were administered with 1×collagenase and hyaluronidase mix (Stemcell, catalog no. 07912) in 100 μL of sterile 1×PBS while control mice were administered with the equivalent volume of sterile 1×sPBS. These enzymes were injected via intratumoral (I.T.) route starting on the day of tumor inoculation (day 0), day 1, day 2, day 3, day 4 and then every other day (day 6, 8, 10, etc.) until the end of the study. Except for day 3 tumor harvest, mice were euthanized when a tumor reached 2 cm in diameter in accordance with IACUC protocols. For early time point tumor analysis, specific Ncr1^iCre, ROSA^mT-mG mice from PBS, Losartan and DHB group were euthanized on day 3 post tumor inoculation, the implanted tumor harvested and fixed in pre-chilled 95% ethanol overnight at 4° C. before subjecting them to subsequent processing.
Terminal subcutaneous tumors were excised with the skin and weighed before cutting in half. One half was placed in appropriate fixative while the other half was separated from the skin and chopped with scissors into ˜1 mm pieces. These were transferred to a 15 mL tube with 10 mL digest buffer (RPMI 1640 (Life Technologies, catalog no. 21870076), 200 U/mL Collagenase IV (Worthington Biochemical, Lakewood, NJ, USA)) and incubated for 2 hours at 37° C. with shaking. Following incubation, digested tumor was poured onto a […] strainer placed in a 50 mL tube. The 15 mL tube was rinsed with ˜3 mL of 1×PBS/2% FCS/5 mM EDTA and added to the digested sample. The tumor was mashed with a plunger through the […] strainer which was then rinsed ˜3 times with a small volume of 1×PBS/2% FCS/5 mM EDTA. The tumor-infiltrating CD45^+ immune cells were isolated by magnetic-based positive selection using CD45 microbeads (Miltenyi Biotec, catalog no. 130-052-301) according to the manufacturer's protocol. The stained cells were passed through the LS columns (Miltenyi Biotec, catalog no. 130-042-401) placed between magnets for isolation of immune cells. The isolated CD45^+ cells were centrifuged at 300 g for 5 minutes at 4° C. and resuspended in 2.4G2 blocking solution before flow cytometry staining.
Mice were I.P. injected with 500 μg/mouse of IgG isotype control (Southern Biotech, Birmingham, AL, USA, catalog no. 0107-01) or depleting anti-NK1.1 antibody (clone PK136, BioXcell, West Lebanon, NH, USA, catalog no. BE0036) two days before tumor cell injection and 250 μg/mouse every other day starting the day of the tumor cell injection. For depletion of NK or T cells (anti-CD4 antibody, clone GK1.5, BioXcell; anti-CD8a antibody, clone YTS 169.4, BioXcell) in a skin transplant setting, 500 μg/mouse of each depleting antibody were injected the day of the transplant and 250 μg at days indicated in FIG. S5E. […]

[2] = tested on: Ly49H^+ splenic cNK cells; assay: Splenic cNK cell co-culture with m157-MEF in the presence of ECM proteins (CD107a, IFNγ flow cytometry); format: cell-based, mice; settings: for altering NK cell functions (CD107a, IFNγ): co-culture with m157-MEF
Procedure: (§1) Single-cell suspensions from all samples were prepared by straining through a 70 μm filter. 2.4G2 supernatant treated cells were stained in 1×PBS/2% FCS/5 mM EDTA with the appropriate surface antibodies (Table 2) for 30 minutes at 4° C., washed and analyzed by flow cytometry. For intracellular staining, cells were fixed and permeabilized using True-Nuclear Transcription Buffer set (Biolegend, catalog no. 424401) according to the manufacturer's protocol then incubated with appropriate antibodies (Table 2) for 60 min at RT, washed and analyzed by flow cytometry. For in vitro signaling experiments, following the specified time points, cells were fixed with an equal volume of pre-warmed 1×aldehyde based fixation buffer (Biolegend, catalog no. 420801) for 20 min at RT. Fixed cells were permeabilized by drop-wise addition of chilled methanol-based solution True-Phos Perm Buffer (Biolegend, catalog no. 425401) while mixed on a vortex. Cells were stored in-20° C. and dark for 1-3 days before washing them two times with ˜3 mL of 1×PBS/2% FCS/5 mM EDTA. Cells were subsequently stained with appropriate antibodies against surface markers and specific phosphorylated signaling proteins (Table 2) for 60 min at RT, washed and analyzed by flow cytometry. Cells were assayed on a BD LSRFortessa X-20 flow cytometer (BD Bioscience, Billerica, MA, USA) and data were analyzed using FlowJo software Version 10 (Tree Star, Ashlad, OR, USA). NK cells in WT non-reporting mice were identified as CD3^− NK1.1^+NKp46^+.
(§2) For in vitro experiments in the presence of ECM components, Collagen I (Rat tail, Sigma, catalog no. 08-115), collagen III (Human placenta, Sigma, catalog no. C4407), collagen IV (Mouse, Sigma, catalog no. C0543), Elastin (Mouse lung, Sigma, catalog no. E6402), Laminin (Mouse, Thermo Fisher, catalog no. 23017015) and Fibronectin (Rat plasma, Sigma, catalog no. F0635) were diluted in 1×PBS and coated at 20 μ ENREF 45 g/cm^2 in a 24 well tissue culture plate for 30 minutes at RT with gentle shaking followed by overnight at 4° C. Spleens from Ncr1^iCre, ROSA^mT-mG, WT or Lair1^−/− mice were harvested as described above. Then, 5×10^6 splenocytes resuspended in RPMI 10% FBS/1% P/S/20 mM Glutamine were mixed with 20 μg of respective ECM protein per well and were incubated at RT for 10 minutes. Splenocytes and ECM mix were plated onto the ECM-coated well and were incubated at 37° C./5% CO2 for 2 hours (short ECM exposure) or 17 hours (long ECM exposure). At the end of the incubation, 1×10^5 MEF (WT or m157) cells were added to each well to obtain a 50:1 splenocyte:MEF ratio. For cell signaling experiments, hydrogen peroxide (H2O2) at a final concentration of 2.5 mM or 1×10^5 MEF-m157 cells were added to each well except in “0 min” wells which were unstimulated and fixed immediately. Splenocytes were stimulated with 2.5 mM H2O2 for 2 min and 5 min or were co-cultured with MEF-m157 for 30 min and 60 min (signaling) or 7 hours (CD107a and IFN[…]) at 37° C./5% CO2. Splenocytes and MEF in co-culture were supplemented with mIL-12 (10 ng/mL, Biolegend, catalog no. 577002), mIL-15 (1 ng/mL, Shenandoah Biotechnology, catalog no. 200-07) and hIL-2 (Biolegend, catalog no. 589104; only long ECM exposure) as well as for CD107a/IFN experiments. 1 μL of anti-CD107a-BV421 (1D4B, Biolegend, catalog no. 121618), 1×Brefeldin A (Biolegend, catalog no. 420601) and 1×Monensin (Biolegend, catalog no. 420701) were added. Following the co-culture, cells were washed with 1×PBS/2% FCS/5 mM EDTA and the pellet was resuspended in 2.4G2 blocking solution before flow cytometry staining.

[3] = tested on: splenic cNK cells; assay: Phospho-signaling in splenic cNK cells stimulated with H2O2 in the presence of ECM proteins; format: cell-based, mice
Procedure: as §1, §2

Row | Molecule | proportions of tumor infiltrating Tregs, macrophages and MDSCs [1] | NK cell infiltration of the tumor parenchyma [1] | T cell recruitment into the B2m−/− B16 tumors [1] | IFNγ expression of tumor NK cells [1] | PD-1 expression of tumor NK cells [1] | granzyme B expression of tumor NK cells [1] | survival [1] | B2m−/− melanoma growth in the skin [1] | altering NK cell functions (CD107a, IFNγ) ([2]; 9 and 24 hours) | also measured
1 | O=C(O)c1ccc(O)c(O)c1 [DHB, 3,4-dihydroxybenzoic acid] | remained unaltered or increased | highly infiltrated the tumor parenchyma | did not induce T cell recruitment | markedly elevated expression | markedly elevated expression | markedly elevated expression | significant survival benefit | protected the mice from B2m^−/− melanoma growth in the skin in an NK cell-dependent manner |  | 
2 | CCCCc1nc(Cl)c(CO)n1Cc1ccc(-c2ccccc2-c2nn[nH]n2)cc1 [losartan, Losartan Potassium] | remained unaltered or increased | highly infiltrated the tumor parenchyma | did not induce T cell recruitment | markedly elevated expression | markedly elevated expression | markedly elevated expression | significant survival benefit | protected the mice from B2m^−/− melanoma growth in the skin in an NK cell-dependent manner |  | 
3 | collagen IV: collagen IV (Mouse, Sigma), epidermal basement membrane protein |  |  |  |  |  |  |  |  | played a minor role | 
4 | fibronectin: Fibronectin (Rat plasma, Sigma), epidermal basement membrane protein |  |  |  |  |  |  |  |  | played a minor role | 
5 | laminin: Laminin (Mouse, Thermo Fisher), epidermal basement membrane protein |  |  |  |  |  |  |  |  | played a minor role | 
6 | B1 |  |  |  |  |  |  |  |  |  | Ly49H+ cNK cell degranulation (CD107a) ([2]; 9 and 24 hours co-culture with m157-MEF, ECM coated 20 μg/cm2): potently blocked; IFNγ production by Ly49H+ cNK cells ([2]; exposed to m157-MEF, 9 and 24 hours): suppressed; pERK1/2 levels in NK cells ([3]; H2O2 2.5 mM, 2 and 5 min): markedly reduced; pPLCγ1 levels in NK cells ([3]; H2O2 2.5 mM, 2 and 5 min): markedly reduced; pSTAT3 in NK cells ([3]; baseline and 2- and 5-minute exposure to H2O2): increased pSTAT3 at baseline; pSTAT5 in NK cells ([3]; baseline and 2- and 5-minutes exposure to H2O2): highly induced
